Measurements reported in patent publication US20240173419A1, “CDK2 DEGRADERS AND USES THEREOF” (Kymera Therapeutics, Inc., priority 2022, published 2024).

Target: T1, CDK2 (Homo sapiens, UniProt P24941)
T1 construct: endogenous in cells; host or cells: MKN1 cells
Test: CDK2 degradation in MKN1 cells (AlphaLISA)
Assay type: cell-based
Set-up: key to CDK2 degradation 14 h: Mean external-Abs DC50 (nM): A (<100 nM); B (≥100-500 nM); C (>500-1000 nM); D (>1000 nM); E (not achieved)
Settings: 14 h incubation; for DC50: read-out: CDK2 degradation 14 h: Mean external-Abs DC50
Description: Degradation of CDK2 in MKN1 cells was measured using AlphaLISA technology (PerkinElmer ALSU-TCDK2-A10K). MKN1 cells were maintained in RPMI1640 medium containing 10% FBS+1× penn/strep. Cells were seeded in 96-well plates (Corning 3599) at a density of 2e4 cells per well in 80 μL of fresh complete growth medium. Cells were incubated overnight at 37° C., 5% CO2. Compounds were then added to the cell assay plates with a final top concentration of 10 μM in a 1:5 dilution series with a total of 11 doses (0.001 nM-10 μM). The final volume per well was 160 μL and the final DMSO concentration was 0.1%. Additionally, wells containing no cells and only complete growth medium were also maintained on the cell assay plates (‘no cell’ wells) and processed along with experimental wells. After 14 hour-incubation at 37° C., 5% CO2, the medium was removed and the cells were washed once with 100 μL of 1×PBS. Following removal of PBS, 40 μL of 1× Lysis Buffer containing 1× protease and phosphatase inhibitors (Roche 4693116001; Roche 4906837001) were added to each well. The cell assay plate was agitated on a plate shaker at 350 rpm for 10 minutes at room temperature. 10 μL of each cell lysate were transferred to a 384-well plate (PerkinElmer 6007290). 10 μL of control lysates (from PerkinElmer ALSU-TCDK2-A10K kit) were added to separate wells to generate a standard curve. Activation Buffer was prepared by diluting 25-fold in combined Reaction Buffer 1 and Reaction Buffer 2. Acceptor Beads were diluted 50-fold in combined Reaction Buffers. 5 μL of Acceptor Mix were added to each well. The plate was sealed with Topseal-Aadhesive film, covered with foil, and incubated in the dark for 1 hour at room temperature. Under subdued light, the Donor Beads were diluted 50-fold in Dilution Buffer. 5 μL of Donor Mix were added to each well under subdued light. The plate was sealed with Topseal-A adhesive film, covered with foil, and incubated in the dark for 1 hour at room temperature. Under subdued light, the plates were analyzed on an EnVision Microplate Reader (PerkinElmer Model 2009-0030). The average signal from ‘no cell’ wells was subtracted from the signal in experimental wells prior to calculating Alpha signal for test compounds and negative control (0.100 DMSO). The data were analyzed using Xlfit (v5.3. 1.3) and the dose-dependent CDK2 degradation data were fit using a four-parameter logistic model to calculate DC50.

| Structure (SMILES) | CDK2 degradation 14 h: Average Dmax % | DC50 [nM] | CDK2 degradation 14 h: Mean external-Abs DC50 (nM) |
| --- | --- | --- | --- |
| Cc1cc(S(=O)(=O)N2CC(OCCN3CCC(c4ccc5c(c4)n(C)c(=O)n5C4CCC(=O)NC4=O)CC3)C2)ccc1Nc1ncc2ccc(=O)n(C3CCCC3)c2n1 (centres unmarked) [I-462] | A (A (>75% o)) | < 100 | – |
| Cc1cc(S(=O)(=O)N2CCC(CCN3CCN(c4ccc5c(c4F)n(C)c(=O)n5C4CCC(=O)NC4=O)CC3)CC2)ccc1Nc1ncc2ccc(=O)n(C3CCCC3)c2n1 (centres unmarked) [I-287] | A (A (>75% o)) | < 100 | – |
| Cc1cc(S(=O)(=O)C2CC3(CCN(CC4CCN(c5ccc(NC6CCC(=O)NC6=O)cc5F)CC4)CC3)C2)ccc1Nc1ncc2cc(Cl)c(=O)n(C3CCCC3)c2n1 (centres unmarked) [I-152] | B (B (>50% -75%)) | < 100 | – |
| Cc1cc(S(=O)(=O)NC2CC(N3CCN(CC4CCN(c5ccc(N6CCC(=O)NC6=O)c(Cl)c5)CC4)CC3)C2)ccc1Nc1ncc(C(F)(F)F)c(N2CCCC(C)(O)C2)n1 (centres unmarked) [I-721] | A (A (>75% o)) | < 100 | – |
| Cc1cc(S(=O)(=O)NCCO[C@H]2CC[C@H](CN3CCC(c4ccc5c(c4)n(C)c(=O)n5C4CCC(=O)NC4=O)CC3)CC2)ccc1Nc1ncc2cc(C(F)F)c(=O)n(C3CCCC3)c2n1 (some centres unmarked) [I-441] | A (A (>75% o)) | < 100 | – |
| Cc1cc(S(=O)(=O)C2CC3(CCN(CC4CCN(c5cccc(NC6CCC(=O)NC6=O)c5F)CC4)CC3)C2)ccc1Nc1ncc2cc(Cl)c(=O)n(C3CCCC3)c2n1 (centres unmarked) [I-71] | A (A (>75% o)) | 100 to 500 | – |
| Cc1cc(S(=O)(=O)NC2(C)CCC(CN3CCN(c4ccc(C5CCC(=O)NC5=O)cc4F)CC3)CC2)ccc1Nc1ncc(C(F)(F)F)c(N2CCC[C@](C)(O)C2)n1 (some centres unmarked) [I-803] | A (A (>75% o)) | < 100 | – |
| Cc1cc(S(=O)(=O)NCCOCCOCCOCCOCCCc2ccc3c(c2)n(C)c(=O)n3C2CCC(=O)NC2=O)ccc1Nc1ncc2c(C)c(Br)c(=O)n(C3CCCC3)c2n1 (centres unmarked) [I-460] | B (B (>50% -75%)) | < 100 | – |
| Cc1cc(S(=O)(=O)C2CC3(CCN(CC4CCN(c5cccc(C6CCC(=O)NC6=O)c5)CC4)CC3)C2)ccc1Nc1ncc2cc(Cl)c(=O)n(C3CCCC3)c2n1 (centres unmarked) [I-80] | C (C (>25% -50%)) | – | E |
| Cc1cc(S(=O)(=O)CCCO[C@H]2CC[C@H](CN3CCC(c4ccc5c(c4)n(C4CCC(=O)NC4=O)c(=O)n5C)CC3)CC2)ccc1Nc1ncc2cc(C(F)F)c(=O)n(C(C)C)c2n1 (some centres unmarked) [I-6] | B (B (>50% -75%)) | – | E |

Second part, the compound after the results:

| CDK2 degradation 14 h: Average Dmax % | DC50 [nM] | CDK2 degradation 14 h: Mean external-Abs DC50 (nM) | Structure (SMILES) |
| --- | --- | --- | --- |
| A (A (>75% o)) | < 100 | – | O=C1CCC(c2ccc(N3CCC(CN4CCC(NS(=O)(=O)c5ccc(Nc6ncc7c(n6)N(C6CCCC(O)C6)C(=O)C76CC6)c(F)c5)C(F)C4)CC3)cc2F)C(=O)N1 (centres unmarked) [I-950] |
| B (B (>50% -75%)) | 100 to 500 | – | CC1(O)CCCN(c2nc(Nc3ccc(S(=O)(=O)NC4CCC(CN5CCN(c6ccc(C7CCC(=O)NC7=O)c(F)c6)CC5)CC4)cc3C(F)(F)F)ncc2C(F)(F)F)C1 (centres unmarked) [I-1114] |
| D (D (<25%)) | > 1000 | – | Cc1cc(S(=O)(=O)C2CC3(CCN(CC4CCN(c5ccc6c(c5F)n(C)c(=O)n6C5CCC(=O)NC5=O)CC4)CC3)C2)ccc1Nc1nc(N2CCCC(C)(O)C2)c2c(ccn2C)n1 (centres unmarked) [I-835] |
| A (A (>75% o)) | < 100 | – | Cc1cc(S(=O)(=O)NC2CCC(CN3CCN(c4c(F)cc(C5CCC(=O)NC5=O)cc4Cl)CC3)CC2)ccc1Nc1ncc(C(F)(F)F)c(N2CCCC(C)(O)C2)n1 (centres unmarked) [I-941] |
| B (B (>50% -75%)) | 100 to 500 | – | CC1(O)CCCN(c2nc(Nc3ccc(S(=O)(=O)NC4CCC(CCN5CCN(c6ccc(C7CCC(=O)NC7=O)c(F)c6)CC5)CC4)cc3C(F)F)ncc2C(F)(F)F)C1 (centres unmarked) [I-1076] |
| A (A (>75% o)) | < 100 | – | Cc1c(Nc2ncc(C(F)(F)F)c(N3CCCC(C)(O)C3)n2)ccc(S(=O)(=O)NC2CCC(CN3CCN(c4ccc(C5CCC(=O)NC5=O)c(F)c4)CC3)CC2)c1F (centres unmarked) [I-1105] |
